Laboratory results: patent US20220226321A1, “INHIBITOR OF MNK FOR THE TREATMENT OF NEUROPATHIC PAIN” (Board of Regents, The University of Texas System, priority 2019, published 2022)

Tested on: SNI mice
Assay: attentional rule-shifting task after SNI
Format: in vivo, mouse
Conditions: SNI mice vs SNI+vehicle, 10 mg/kg p.o. 7 days
Method: Surgery. Spared nerve injury (SNI) was performed by the ligation and cutting of the tibial and peroneal branches of the left sciatic nerve trifurcation, leaving the sural branch intact as previously described (Decosterd and Woolf, 2000). Sham surgeries were performed the same way but without cutting the nerve. Mice were allowed to recover for 2 weeks following surgery.
Attentional rule-shifting. Habituation: Mice were handled and gradually food restricted to 90% of their baseline weight over 3 weeks. Habituation took place over 3 days in which food rewards (Cheerio bits) were placed along each arm of a plusmaze. Mice were allowed to freely explore the maze and consume the food for 4 trials per day with a maximum time of 30 minutes per trial. When the mouse had consumed all of the food, the trial ended, and the mouse was returned to a holding cage while the maze was rebaited. The number of food pellets in each arm decreased from 4 to 2 to 1 on each consecutive day of habituation. Turn bias: On the fourth day the inventors assessed the animals' turn bias. Therefore, the plus maze was converted into a T-maze by blocking off one of the arms. Mice were placed in the stem arm (starting arm) and allowed to turn left or right to obtain a food pellet. After the mouse consumed the reward, it was returned to the stem arm and allowed to make another choice. […]

For `Cc1cc(Nc2cc(N)ncn2)c(=O)n2c1C(=O)NC21CCCCC1` [eFT508, Tomivosertib], which “never-reinforced (NRE) and regressive (REG) type errors” value is on record?
Its value is “significantly fewer”.
